Measured values reported in paper PMC9679038, “Hemoglobin is an oxygen-dependent glutathione buffer adapting the intracellular reduced glutathione levels to oxygen availability” (Redox Biology, 2022).

Target: T1, Hemoglobin (Hb; oxy-Hb, also deoxy-Hb) (Homo sapiens, UniProt P68871+P69905)
T1 construct: gene HBB
T1 sequence (P68871 2-147): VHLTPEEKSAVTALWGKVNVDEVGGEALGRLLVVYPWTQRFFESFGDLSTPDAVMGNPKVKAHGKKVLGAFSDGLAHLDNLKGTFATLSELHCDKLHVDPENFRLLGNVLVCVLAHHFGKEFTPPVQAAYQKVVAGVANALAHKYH
T1 sequence (P69905 2-142): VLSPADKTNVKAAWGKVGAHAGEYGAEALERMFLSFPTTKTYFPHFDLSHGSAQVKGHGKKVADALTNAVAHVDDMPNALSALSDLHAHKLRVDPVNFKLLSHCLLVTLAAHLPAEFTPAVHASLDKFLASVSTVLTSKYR

Which Kd does the source give for N[C@@H](CCC(=O)N[C@@H](CS)C(=O)NCC(=O)O)C(=O)O [GSH, reduced glutathione] here?
Its Kd is 2000 nM.
